Measured values taken from patent publication US9833497B2, “Human originated EGF domain proteins and use of the same” (CHENGDU SOURCEBIO LIMITED-LIABILITY COMPANY, priority 2013, dated 2017).

What was measured:
Format in all cases: cell-based
Pseudomonas aeruginosa = test: MIC against Gram-negative bacteria: Pseudomonas aeruginosa; details: 5×10^5 CFU/mL; for MIC against P. aeruginosa: Pseudomonas aeruginosa
Method in brief: (§1)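 First, colonies from LB agar were grown in LB at 37° C, 185 rpm, to McFarland turbidity 0.5, then centrifuged and resuspended in fresh LB. Next, wells received 5×10^5 CFU/mL bacteria plus two-fold serially diluted EGF domain protein (triplicate). Finally, plates were shaken at 37° C and the no-growth concentration taken as MIC.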

Proteus vulgaris = test: MIC against Gram-negative bacteria: Proteus vulgaris; details: 5×10^5 CFU/mL; for MIC against P. vulgaris: Proteus vulgaris
Method in brief: as §1

Serratia marcescens = test: MIC against Gram-negative bacteria: Serratia marcescens; details: 5×10^5 CFU/mL; for MIC against S. marcescens: Serratia marcescens
Method in brief: as §1

E. coli DH5α = test: Antibacterial activity: MIC and growth curve against E. coli DH5α in 96-well plate; details: minimal inhibitory concentration against E. coli DH5α; 96-well plate, 5×10^5 CFU/mL, 37° C., judged after 8 h
Method in brief: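 MIC taken as lowest protein level with no bacterial growth, tracked by A600 every 30 min during 37 °C, 175 rpm culture. Two-fold protein series 50-12.5 μg/mL final, triplicate wells, against 5×10^5 CFU/mL of LB-washed mid-log cells.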

Moraxella catarrhalis = test: MIC against Gram-negative bacteria: Moraxella catarrhalis; details: 5×10^5 CFU/mL; for MIC against M. catarrhalis: Moraxella catarrhalis
Method in brief: as §1

E. coli BL21 = test: MIC against Gram-negative bacteria: E. coli BL21; details: 5×10^5 CFU/mL
Method in brief: as §1

Citrobacter diversus = test: MIC against Gram-negative bacteria: Citrobacter diversus; details: 5×10^5 CFU/mL; for MIC against C. diversus: Citrobacter diversus
Method in brief: as §1

Enterobacter cloacae = test: MIC against Gram-negative bacteria: Enterobacter cloacae; details: 5×10^5 CFU/mL; for MIC against E. cloacae: Enterobacter cloacae
Method in brief: as §1

Aeromonas hydrophila = test: MIC against Gram-negative bacteria: Aeromonas hydrophila; details: 5×10^5 CFU/mL; for MIC against A. hydrophila: Aeromonas hydrophila
Method in brief: as §1

Klebsiella pneumonia = test: MIC against Gram-negative bacteria: Klebsiella pneumonia; details: 5×10^5 CFU/mL; for MIC against K. pneumonia: Klebsiella pneumonia
Method in brief: as §1

Proteus mirabilis = test: MIC against Gram-negative bacteria: Proteus mirabilis; details: 5×10^5 CFU/mL; for MIC against P. mirabilis: Proteus mirabilis
Method in brief: as §1

[1] = P. aeruginosa, 10 h cultivation at 37° C.
[2] = P. vulgaris, 10 h cultivation at 37° C.
[3] = S. marcescens, 10 h cultivation at 37° C.
[4] = M. catarrhalis, 10 h cultivation at 37° C.
[5] = E. coli BL21, 10 h cultivation at 37° C.
[6] = C. diversus, 10 h cultivation at 37° C.
[7] = E. cloacae, 10 h cultivation at 37° C.
[8] = A. hydrophila, 10 h cultivation at 37° C.
[9] = K. pneumonia, 10 h cultivation at 37° C.
[10] = P. mirabilis, 10 h cultivation at 37° C.

PRT881 (AEGPCGERPCENGGICFLLDGHPTCDCSTTGYGGKLCS; listed as Homo sapiens)
12.5 µg/mL: MIC (μg/mL) P. aeruginosa (Pseudomonas aeruginosa; [1]) | MIC (μg/mL) S. marcescens (Serratia marcescens; [3]) | MIC (E. coli DH5α) | MIC (μg/mL) E. coli BL21 (E. coli BL21; [5]) | MIC (μg/mL) C. diversus (Citrobacter diversus; [6]) | MIC (μg/mL) E. cloacae (Enterobacter cloacae; [7]) | MIC (μg/mL) P. mirabilis (Proteus mirabilis; [10])
25 µg/mL: MIC (μg/mL) P. vulgaris (Proteus vulgaris; [2]) | MIC (μg/mL) M. catarrhalis (Moraxella catarrhalis; [4]) | MIC (μg/mL) A. hydrophila (Aeromonas hydrophila; [8]) | MIC (μg/mL) K. pneumonia (Klebsiella pneumonia; [9])

PRT440 (DVNECRQNVCRPDQHCKNTRGGYKCIDLCPNGMTKAENGTCI; listed as Homo sapiens)
12.5 µg/mL: MIC (Moraxella catarrhalis; [4]) | MIC (E. coli BL21; [5]) | MIC (Aeromonas hydrophila; [8]) | MIC (Klebsiella pneumonia; [9])
50 µg/mL: MIC (Pseudomonas aeruginosa; [1]) | MIC (Proteus vulgaris; [2]) | MIC (E. coli DH5α) | MIC (Citrobacter diversus; [6]) | MIC (Enterobacter cloacae; [7])
25 µg/mL: MIC (Serratia marcescens; [3]) | MIC (Proteus mirabilis; [10])

PRT770 (FRDPCDPNPCQNDGICVNVKGMASCRCISGHAFFYTGERCQ; listed as Homo sapiens)
25 µg/mL: MIC (μg/mL) M. catarrhalis (Moraxella catarrhalis; [4]) | MIC (μg/mL) A. hydrophila (Aeromonas hydrophila; [8])
50 µg/mL: MIC (μg/mL) P. aeruginosa (Pseudomonas aeruginosa; [1]) | MIC (μg/mL) S. marcescens (Serratia marcescens; [3]) | MIC (E. coli DH5α) | MIC (μg/mL) E. cloacae (Enterobacter cloacae; [7]) | MIC (μg/mL) P. mirabilis (Proteus mirabilis; [10])
12.5 µg/mL: MIC (μg/mL) P. vulgaris (Proteus vulgaris; [2]) | MIC (μg/mL) E. coli BL21 (E. coli BL21; [5]) | MIC (μg/mL) C. diversus (Citrobacter diversus; [6]) | MIC (μg/mL) K. pneumonia (Klebsiella pneumonia; [9])

PRT835 (DVDECASSRGGCEHHCTNLAGSFQCSCEAGYRLHEDRRGCS; listed as Homo sapiens)
50 µg/mL: MIC (μg/mL) E. coli BL21 (E. coli BL21; [5]) | MIC (μg/mL) E. cloacae (Enterobacter cloacae; [7]) | MIC (μg/mL) P. mirabilis (Proteus mirabilis; [10])
25 µg/mL: MIC (μg/mL) P. aeruginosa (Pseudomonas aeruginosa; [1]) | MIC (μg/mL) S. marcescens (Serratia marcescens; [3]) | MIC (E. coli DH5α) | MIC (μg/mL) M. catarrhalis (Moraxella catarrhalis; [4]) | MIC (μg/mL) A. hydrophila (Aeromonas hydrophila; [8])
12.5 µg/mL: MIC (μg/mL) P. vulgaris (Proteus vulgaris; [2]) | MIC (μg/mL) C. diversus (Citrobacter diversus; [6]) | MIC (μg/mL) K. pneumonia (Klebsiella pneumonia; [9])

PRT1415 (PRATCLDQCSGHGTFLPDTGLCSCDPSWTGHDCS; listed as Homo sapiens)
25 µg/mL: MIC against P. aeruginosa (Pseudomonas aeruginosa; 10 h cultivation at 37° C.) | MIC against P. vulgaris (Proteus vulgaris; 10 h cultivation at 37° C.) | MIC (E. coli DH5α) | MIC against M. catarrhalis (Moraxella catarrhalis; 10 h cultivation at 37° C.) | MIC against E. cloacae (Enterobacter cloacae; 10 h cultivation at 37° C.) | MIC against A. hydrophila (Aeromonas hydrophila; 10 h cultivation at 37° C.)
12.5 µg/mL: MIC against E. coli BL21 (E. coli BL21; [5]) | MIC against K. pneumonia (Klebsiella pneumonia; 10 h cultivation at 37° C.) | MIC against P. mirabilis (Proteus mirabilis; 10 h cultivation at 37° C.)
50 µg/mL: MIC against S. marcescens (Serratia marcescens; 10 h cultivation at 37° C.) | MIC against C. diversus (Citrobacter diversus; 10 h cultivation at 37° C.)

PRT642 (DVNECDELNNRMSLCKNAKCINTDGSYKCLCLPGYVPSDKPNYCT; listed as Homo sapiens)
25 µg/mL: MIC P. aeruginosa (Pseudomonas aeruginosa; 96-well plate, 37° C., 10 h) | MIC S. marcescens (Serratia marcescens; 96-well plate, 37° C., 10 h) | MIC C. diversus (Citrobacter diversus; 96-well plate, 37° C., 10 h) | MIC E. cloacae (Enterobacter cloacae; 96-well plate, 37° C., 10 h) | MIC P. mirabilis (Proteus mirabilis; 96-well plate, 37° C., 10 h)
50 µg/mL: MIC P. vulgaris (Proteus vulgaris; 96-well plate, 37° C., 10 h) | MIC E. coli BL21 (E. coli BL21; 96-well plate, 37° C., 10 h) | MIC A. hydrophila (Aeromonas hydrophila; 96-well plate, 37° C., 10 h)
12.5 µg/mL: MIC (E. coli DH5α) | MIC M. catarrhalis (Moraxella catarrhalis; 96-well plate, 37° C., 10 h) | MIC K. pneumonia (Klebsiella pneumonia; 96-well plate, 37° C., 10 h)

PRT1463 (CDCDTAGSLPGTVCNAKTGQCICKPNVEGRQCNKCLEGNFYLRQNNSFLCLP; listed as Homo sapiens)
25 µg/mL: MIC against P. vulgaris (Proteus vulgaris; 10 h cultivation at 37° C.) | MIC against M. catarrhalis (Moraxella catarrhalis; 10 h cultivation at 37° C.) | MIC against E. coli BL21 (E. coli BL21; [5]) | MIC against K. pneumonia (Klebsiella pneumonia; 10 h cultivation at 37° C.)
12.5 µg/mL: MIC against P. aeruginosa (Pseudomonas aeruginosa; 10 h cultivation at 37° C.) | MIC against S. marcescens (Serratia marcescens; 10 h cultivation at 37° C.) | MIC against A. hydrophila (Aeromonas hydrophila; 10 h cultivation at 37° C.) | MIC against P. mirabilis (Proteus mirabilis; 10 h cultivation at 37° C.)
50 µg/mL: MIC (E. coli DH5α) | MIC against C. diversus (Citrobacter diversus; 10 h cultivation at 37° C.) | MIC against E. cloacae (Enterobacter cloacae; 10 h cultivation at 37° C.)
